How the values were obtained:
[1] = test system: ROCK-II(r); experiment: Kinase selectivity panel; type: biochemical, rat; conditions: read-out: Inhibition(%) @ 1 µM RK-019
Protocol: Median-inhibitory concentration (IC50) and inhibition ratio of kinases by RK-019 was assessed by Eurofins Discovery Services (Dundee, United Kingdom) using the ATP-site competition binding assay in vitro. Firstly, gradient concentration of RK-019 against FGFRs, including FGFR1, FGFR2, FGFR3, and FGFR4, were tested. IC50 value was calculate by the GraphPad Prism software (v8.4.3, GraphPad Software, California, United States). Then, to measure the selectivity prolife of RK-019, a panel of 422 recombinant human kinases was screened at a concentration of 1 µM RK-019. Kinase MAP was drawn by webtools from Cell Signaling Technology, Inc. (www.cellsignal.com).

[2] = test system: KATO III cells; experiment: Cell cycle analysis by flow cytometry (PI staining); type: cell-based; conditions: 100 nM, 24 h
Protocol: Cell cycle and apoptosis assay were both measured by flow cytometry (FCM). The data were analyzed by the NovoExpress software (v1.4.0, Agilent, Santa Clara, CA, United States). For cell cycle assay, the cells were treated by different concentrations of RK-019 for 24 h, then were harvested and washed twice with cold phosphate buffered solution (PBS), followed by fixed with 75% ethanol overnight. Before test, the cells were washed twice with cold PBS and stained with PI stanning solution using cell cycle detecting kit (KGA512, KeyGEN, Nanjing, China), and then measured by FCM. For apoptosis assay, the cells were harvested after treated with different concentrations of RK-019 for 24 h, and stained with a PE Annexin V Apoptosis Detection Kit according to the manufacturer’s protocol followed by detected using FCM.

[3] = test system: SNU-16 cells; experiment: Transwell migration and invasion assay; type: cell-based; conditions: SNU-16, 100 nM, 24 h
Protocol: (§1) In the migration assay, 1×10^5 cells were resuspended in a serum-free medium, then added into the upper chamber, meanwhile the medium containing 10% FBS was added at the bottom with 100 nM RK-019. After 24 h incubation, the migration cells on the filters were fixed with 4% paraformldehyde and washed with PBS, then stained with crystal violet solution for 20 min. In the invasion assay, the upper surface of the transwell was coated with Matrigel (356234, Corning) for 30 min at 37°C until Matrigel was solidified. 1×10^5 cells were resuspended in a serum-free medium, then added into the upper chamber, meanwhile the medium containing 10% FBS was added at the bottom with 100 nM RK-019.After 24 h , the invasion cells on the filters were hatched and fixed, then stained with crystal violet.

[4] = test system: KATO III cells; experiment: Transwell migration and invasion assay; type: cell-based; conditions: 100 nM, 24 h
Protocol: as §1

[5] = molecular target: T1, NDR2(h) (Homo sapiens, UniProt Q9Y2H1); experiment: Kinase selectivity panel; type: biochemical; conditions: read-out: Inhibition(%) @ 1 µM RK-019
T1 construct: purchased Eurofins Discovery Services (KinaseProfiler)
In short: (§2)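 ATP-site competition binding, in vitro; recombinant human kinase, single concentration 1 µM; % inhibition read-out.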

[6] = molecular target: T2, PKCι(h) (Homo sapiens, UniProt P41743); experiment: Kinase selectivity panel; type: biochemical; conditions: read-out: Inhibition(%) @ 1 µM RK-019
T2 construct: purchased Eurofins Discovery Services (KinaseProfiler)
In short: as §2

[7] = molecular target: T3, Ret (V804L)(h) (Homo sapiens, UniProt P07949, V804L); experiment: Kinase selectivity panel; type: biochemical; conditions: read-out: Inhibition(%) @ 1 µM RK-019
T3 construct: purchased Eurofins Discovery Services (KinaseProfiler)
In short: as §2

[8] = molecular target: T4, CDK4/cyclinD3(h) (Homo sapiens, UniProt P11802); experiment: Kinase selectivity panel; type: biochemical; conditions: read-out: Inhibition(%) @ 1 µM RK-019
T4 construct: purchased Eurofins Discovery Services (KinaseProfiler)
In short: as §2

[9] = molecular target: T5, MST4(h) (Homo sapiens, UniProt Q9P289); experiment: Kinase selectivity panel; type: biochemical; conditions: read-out: Inhibition(%) @ 1 µM RK-019
T5 construct: purchased Eurofins Discovery Services (KinaseProfiler)
In short: as §2

[10] = molecular target: T6, mTOR/FKBP12(h) (Homo sapiens, UniProt P42345); experiment: Kinase selectivity panel; type: biochemical; conditions: read-out: Inhibition(%) @ 1 µM RK-019
T6 construct: purchased Eurofins Discovery Services (KinaseProfiler)
In short: as §2

[11] = molecular target: T7, GRK1(h) (Homo sapiens, UniProt Q15835); experiment: Kinase selectivity panel; type: biochemical; conditions: read-out: Inhibition(%) @ 1 µM RK-019
T7 construct: purchased Eurofins Discovery Services (KinaseProfiler)
In short: as §2

[12] = molecular target: T8, SAPK2a(T106M)(h) (Homo sapiens, UniProt Q16539, T106M); experiment: Kinase selectivity panel; type: biochemical; conditions: read-out: Inhibition(%) @ 1 µM RK-019
T8 construct: purchased Eurofins Discovery Services (KinaseProfiler)
In short: as §2

[13] = molecular target: T9, HIPK2(h) (Homo sapiens, UniProt Q9H2X6); experiment: Kinase selectivity panel; type: biochemical; conditions: read-out: Inhibition(%) @ 1 µM RK-019
T9 construct: purchased Eurofins Discovery Services (KinaseProfiler)
In short: as §2

[14] = molecular target: T10, HIPK4(h) (Homo sapiens, UniProt Q8NE63); experiment: Kinase selectivity panel; type: biochemical; conditions: read-out: Inhibition(%) @ 1 µM RK-019
T10 construct: purchased Eurofins Discovery Services (KinaseProfiler)
In short: as §2

[15] = molecular target: T11, MYO3B(h) (Homo sapiens, UniProt Q8WXR4); experiment: Kinase selectivity panel; type: biochemical; conditions: read-out: Inhibition(%) @ 1 µM RK-019
T11 construct: purchased Eurofins Discovery Services (KinaseProfiler)
In short: as §2

[16] = molecular target: T12, PhKγ1(h) (Homo sapiens, UniProt Q16816); experiment: Kinase selectivity panel; type: biochemical; conditions: read-out: Inhibition(%) @ 1 µM RK-019
T12 construct: purchased Eurofins Discovery Services (KinaseProfiler)
In short: as §2

[17] = molecular target: T13, Rsk1(h) (Homo sapiens, UniProt Q15418); experiment: Kinase selectivity panel; type: biochemical; conditions: read-out: Inhibition(%) @ 1 µM RK-019
T13 construct: purchased Eurofins Discovery Services (KinaseProfiler)
In short: as §2

[18] = molecular target: T14, PKG1α(h) (Homo sapiens, UniProt Q13976); experiment: Kinase selectivity panel; type: biochemical; conditions: read-out: Inhibition(%) @ 1 µM RK-019
T14 construct: purchased Eurofins Discovery Services (KinaseProfiler)
In short: as §2

[19] = molecular target: T15, Met(Y1248H)(h) (Homo sapiens, UniProt P08581, Y1230H); experiment: Kinase selectivity panel; type: biochemical; conditions: read-out: Inhibition(%) @ 1 µM RK-019
T15 construct: purchased Eurofins Discovery Services (KinaseProfiler)
In short: as §2

[20] = molecular target: T16, PKCα(h) (Homo sapiens, UniProt P17252); experiment: Kinase selectivity panel; type: biochemical; conditions: read-out: Inhibition(%) @ 1 µM RK-019
T16 construct: purchased Eurofins Discovery Services (KinaseProfiler)
In short: as §2

[21] = molecular target: T17, Hck(h) (Homo sapiens, UniProt P08631); experiment: Kinase selectivity panel; type: biochemical; conditions: read-out: Inhibition(%) @ 1 µM RK-019
T17 construct: purchased Eurofins Discovery Services (KinaseProfiler)
In short: as §2

[22] = molecular target: T18, CaMKK1(h) (Homo sapiens, UniProt Q8N5S9); experiment: Kinase selectivity panel; type: biochemical; conditions: read-out: Inhibition(%) @ 1 µM RK-019
T18 construct: purchased Eurofins Discovery Services (KinaseProfiler)
In short: as §2

[23] = molecular target: T19, PI3 Kinase (p110d/p85a)(m) (Mus musculus, UniProt O35904); experiment: Kinase selectivity panel; type: biochemical; conditions: read-out: Inhibition(%) @ 1 µM RK-019
T19 construct: purchased Eurofins Discovery Services (KinaseProfiler)

[24] = molecular target: T20, MKK4(m) (Mus musculus, UniProt P47809); experiment: Kinase selectivity panel; type: biochemical; conditions: read-out: Inhibition(%) @ 1 µM RK-019
T20 construct: purchased Eurofins Discovery Services (KinaseProfiler)

[25] = molecular target: T21, PTK5(h) (Homo sapiens, UniProt P42685); experiment: Kinase selectivity panel; type: biochemical; conditions: read-out: Inhibition(%) @ 1 µM RK-019
T21 construct: purchased Eurofins Discovery Services (KinaseProfiler)
In short: as §2

[26] = molecular target: T22, EphA1(h) (Homo sapiens, UniProt P21709); experiment: Kinase selectivity panel; type: biochemical; conditions: read-out: Inhibition(%) @ 1 µM RK-019
T22 construct: purchased Eurofins Discovery Services (KinaseProfiler)
In short: as §2

[27] = molecular target: T23, VRK1(h) (Homo sapiens, UniProt Q99986); experiment: Kinase selectivity panel; type: biochemical; conditions: read-out: Inhibition(%) @ 1 µM RK-019
T23 construct: purchased Eurofins Discovery Services (KinaseProfiler)
In short: as §2

[28] = molecular target: T24, CaMKIIα(h) (Homo sapiens, UniProt Q9UQM7); experiment: Kinase selectivity panel; type: biochemical; conditions: read-out: Inhibition(%) @ 1 µM RK-019
T24 construct: purchased Eurofins Discovery Services (KinaseProfiler)
In short: as §2

[29] = molecular target: T25, DCAMKL2(h) (Homo sapiens, UniProt Q8N568); experiment: Kinase selectivity panel; type: biochemical; conditions: read-out: Inhibition(%) @ 1 µM RK-019
T25 construct: purchased Eurofins Discovery Services (KinaseProfiler)
In short: as §2

T11 sequence (Q8WXR4 whole entry): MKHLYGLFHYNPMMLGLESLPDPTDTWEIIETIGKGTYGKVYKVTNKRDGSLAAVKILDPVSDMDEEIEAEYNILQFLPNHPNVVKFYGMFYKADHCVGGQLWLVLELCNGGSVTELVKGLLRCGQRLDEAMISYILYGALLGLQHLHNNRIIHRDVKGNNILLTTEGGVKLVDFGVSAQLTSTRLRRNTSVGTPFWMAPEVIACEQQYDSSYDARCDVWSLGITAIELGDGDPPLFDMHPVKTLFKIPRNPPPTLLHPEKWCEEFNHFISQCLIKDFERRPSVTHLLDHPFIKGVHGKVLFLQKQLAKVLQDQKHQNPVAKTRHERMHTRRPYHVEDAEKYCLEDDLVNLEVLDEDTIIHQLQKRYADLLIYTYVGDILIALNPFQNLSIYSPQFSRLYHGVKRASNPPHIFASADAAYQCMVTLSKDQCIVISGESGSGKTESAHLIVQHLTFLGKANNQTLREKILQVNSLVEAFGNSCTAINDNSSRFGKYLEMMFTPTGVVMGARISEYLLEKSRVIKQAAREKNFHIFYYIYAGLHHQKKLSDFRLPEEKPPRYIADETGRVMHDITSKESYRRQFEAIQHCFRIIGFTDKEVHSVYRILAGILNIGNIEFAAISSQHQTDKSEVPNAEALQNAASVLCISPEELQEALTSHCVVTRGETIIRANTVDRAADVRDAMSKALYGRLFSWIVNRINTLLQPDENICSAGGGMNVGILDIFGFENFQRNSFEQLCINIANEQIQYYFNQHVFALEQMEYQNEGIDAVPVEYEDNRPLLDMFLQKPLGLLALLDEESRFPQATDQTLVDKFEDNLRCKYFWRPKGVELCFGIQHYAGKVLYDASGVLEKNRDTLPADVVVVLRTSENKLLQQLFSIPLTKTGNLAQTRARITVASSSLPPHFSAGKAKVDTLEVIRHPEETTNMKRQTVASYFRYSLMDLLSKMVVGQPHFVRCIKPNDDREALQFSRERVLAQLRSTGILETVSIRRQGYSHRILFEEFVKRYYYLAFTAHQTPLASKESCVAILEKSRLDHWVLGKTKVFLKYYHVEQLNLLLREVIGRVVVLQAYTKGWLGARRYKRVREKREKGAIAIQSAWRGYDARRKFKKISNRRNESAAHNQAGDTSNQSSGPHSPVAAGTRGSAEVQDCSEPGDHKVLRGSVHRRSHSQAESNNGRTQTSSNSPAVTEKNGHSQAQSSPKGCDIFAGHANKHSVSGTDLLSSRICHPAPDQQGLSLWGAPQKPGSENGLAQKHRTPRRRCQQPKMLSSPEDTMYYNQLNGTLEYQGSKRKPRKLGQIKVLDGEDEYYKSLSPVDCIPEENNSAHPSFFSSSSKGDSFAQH
T22 sequence (P21709 26-976): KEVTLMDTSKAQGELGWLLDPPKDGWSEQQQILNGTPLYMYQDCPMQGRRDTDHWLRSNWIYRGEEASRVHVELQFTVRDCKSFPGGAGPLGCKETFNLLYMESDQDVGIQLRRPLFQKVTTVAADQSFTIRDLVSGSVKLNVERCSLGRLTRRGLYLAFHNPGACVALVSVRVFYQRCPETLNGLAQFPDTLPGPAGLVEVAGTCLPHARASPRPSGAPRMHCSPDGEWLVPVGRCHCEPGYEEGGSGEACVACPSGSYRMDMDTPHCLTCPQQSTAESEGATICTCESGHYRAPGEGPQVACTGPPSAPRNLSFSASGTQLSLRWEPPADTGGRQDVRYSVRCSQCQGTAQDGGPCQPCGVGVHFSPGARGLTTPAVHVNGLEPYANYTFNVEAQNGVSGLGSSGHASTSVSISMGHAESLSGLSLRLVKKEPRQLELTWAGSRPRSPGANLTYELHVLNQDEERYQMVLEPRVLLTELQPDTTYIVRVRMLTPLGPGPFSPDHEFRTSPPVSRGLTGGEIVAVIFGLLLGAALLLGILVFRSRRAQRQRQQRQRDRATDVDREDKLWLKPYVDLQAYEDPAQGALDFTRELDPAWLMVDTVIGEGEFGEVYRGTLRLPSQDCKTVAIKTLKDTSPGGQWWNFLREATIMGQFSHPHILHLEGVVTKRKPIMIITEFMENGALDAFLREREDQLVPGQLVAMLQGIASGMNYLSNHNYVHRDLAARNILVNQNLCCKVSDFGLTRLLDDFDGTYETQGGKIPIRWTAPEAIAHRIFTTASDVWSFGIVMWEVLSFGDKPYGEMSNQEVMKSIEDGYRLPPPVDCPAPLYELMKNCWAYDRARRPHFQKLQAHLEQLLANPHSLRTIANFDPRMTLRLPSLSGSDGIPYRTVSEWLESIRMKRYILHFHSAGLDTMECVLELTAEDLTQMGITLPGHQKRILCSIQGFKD
T9 sequence (Q9H2X6 whole entry): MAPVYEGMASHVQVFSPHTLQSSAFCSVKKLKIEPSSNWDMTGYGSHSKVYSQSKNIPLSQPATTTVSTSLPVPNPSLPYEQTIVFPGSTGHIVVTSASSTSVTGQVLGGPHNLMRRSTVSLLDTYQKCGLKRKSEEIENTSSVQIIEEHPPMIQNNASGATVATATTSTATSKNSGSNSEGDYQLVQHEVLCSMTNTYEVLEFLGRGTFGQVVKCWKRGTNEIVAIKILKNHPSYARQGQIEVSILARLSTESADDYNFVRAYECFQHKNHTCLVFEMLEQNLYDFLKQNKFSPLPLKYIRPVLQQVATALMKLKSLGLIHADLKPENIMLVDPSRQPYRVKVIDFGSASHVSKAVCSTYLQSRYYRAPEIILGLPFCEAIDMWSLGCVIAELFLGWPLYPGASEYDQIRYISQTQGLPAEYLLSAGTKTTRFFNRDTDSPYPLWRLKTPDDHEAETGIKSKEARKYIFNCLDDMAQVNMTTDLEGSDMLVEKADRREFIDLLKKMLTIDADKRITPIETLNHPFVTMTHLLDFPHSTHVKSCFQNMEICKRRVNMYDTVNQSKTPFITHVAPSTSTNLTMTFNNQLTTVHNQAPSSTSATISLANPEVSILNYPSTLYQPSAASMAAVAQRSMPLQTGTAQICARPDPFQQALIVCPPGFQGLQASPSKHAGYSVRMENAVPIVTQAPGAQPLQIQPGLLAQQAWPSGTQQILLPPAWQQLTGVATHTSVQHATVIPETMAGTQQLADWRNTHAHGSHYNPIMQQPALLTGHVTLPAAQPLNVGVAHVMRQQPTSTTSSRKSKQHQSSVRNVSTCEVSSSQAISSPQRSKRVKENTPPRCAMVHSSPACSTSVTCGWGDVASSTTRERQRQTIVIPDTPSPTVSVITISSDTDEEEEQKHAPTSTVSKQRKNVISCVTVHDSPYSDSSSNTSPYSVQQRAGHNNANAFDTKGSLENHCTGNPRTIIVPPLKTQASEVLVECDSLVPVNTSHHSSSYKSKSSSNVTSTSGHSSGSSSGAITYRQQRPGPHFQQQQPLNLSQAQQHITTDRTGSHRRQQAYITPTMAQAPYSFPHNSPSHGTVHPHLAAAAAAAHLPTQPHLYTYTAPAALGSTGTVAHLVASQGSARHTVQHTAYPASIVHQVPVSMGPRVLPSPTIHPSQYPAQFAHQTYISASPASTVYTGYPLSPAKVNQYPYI
T23 sequence (Q99986 whole entry): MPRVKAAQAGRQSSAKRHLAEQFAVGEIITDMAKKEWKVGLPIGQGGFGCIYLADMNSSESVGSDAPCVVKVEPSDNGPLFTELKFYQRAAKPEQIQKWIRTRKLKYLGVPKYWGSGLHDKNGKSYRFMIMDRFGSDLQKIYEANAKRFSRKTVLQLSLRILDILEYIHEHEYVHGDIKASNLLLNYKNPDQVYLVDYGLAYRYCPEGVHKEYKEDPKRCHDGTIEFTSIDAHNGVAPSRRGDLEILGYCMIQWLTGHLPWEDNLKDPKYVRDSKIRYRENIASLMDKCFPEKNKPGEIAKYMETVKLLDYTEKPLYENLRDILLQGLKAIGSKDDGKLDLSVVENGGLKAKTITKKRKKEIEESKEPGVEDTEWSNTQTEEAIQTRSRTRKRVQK
T7 sequence (Q15835 whole entry): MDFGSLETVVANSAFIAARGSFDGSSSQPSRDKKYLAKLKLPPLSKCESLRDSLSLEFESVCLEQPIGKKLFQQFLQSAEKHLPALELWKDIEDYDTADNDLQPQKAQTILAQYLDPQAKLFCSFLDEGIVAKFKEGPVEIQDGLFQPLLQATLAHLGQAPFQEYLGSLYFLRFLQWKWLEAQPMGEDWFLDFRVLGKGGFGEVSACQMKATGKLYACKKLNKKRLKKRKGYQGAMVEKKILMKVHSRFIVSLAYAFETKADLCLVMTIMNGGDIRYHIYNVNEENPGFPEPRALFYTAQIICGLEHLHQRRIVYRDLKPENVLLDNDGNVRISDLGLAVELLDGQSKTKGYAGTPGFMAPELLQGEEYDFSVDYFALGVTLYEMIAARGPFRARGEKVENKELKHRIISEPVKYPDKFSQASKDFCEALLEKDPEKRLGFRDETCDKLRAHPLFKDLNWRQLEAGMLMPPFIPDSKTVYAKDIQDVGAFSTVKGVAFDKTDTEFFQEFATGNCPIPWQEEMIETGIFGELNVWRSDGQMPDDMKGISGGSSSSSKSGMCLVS
T4 sequence (P11802 whole entry): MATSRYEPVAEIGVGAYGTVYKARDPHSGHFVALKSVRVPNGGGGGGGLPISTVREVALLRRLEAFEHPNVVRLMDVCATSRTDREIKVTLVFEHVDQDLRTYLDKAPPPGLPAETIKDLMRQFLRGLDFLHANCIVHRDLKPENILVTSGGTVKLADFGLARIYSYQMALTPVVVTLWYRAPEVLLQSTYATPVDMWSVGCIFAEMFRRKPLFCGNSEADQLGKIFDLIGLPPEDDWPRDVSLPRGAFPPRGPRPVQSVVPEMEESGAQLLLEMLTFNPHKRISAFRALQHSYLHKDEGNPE
T4 sequence (P30281 whole entry partner): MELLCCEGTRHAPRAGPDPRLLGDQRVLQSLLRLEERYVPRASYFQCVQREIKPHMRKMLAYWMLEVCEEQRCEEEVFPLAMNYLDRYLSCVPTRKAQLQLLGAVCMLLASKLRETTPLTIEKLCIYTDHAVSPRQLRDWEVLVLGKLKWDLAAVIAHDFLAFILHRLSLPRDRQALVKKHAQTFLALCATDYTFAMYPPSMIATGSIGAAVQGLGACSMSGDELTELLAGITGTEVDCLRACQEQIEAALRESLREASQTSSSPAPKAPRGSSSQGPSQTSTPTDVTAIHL

## COc1cc(OC)cc(N(CCN[C@H](C)CO)c2ccc3ncc(-c4cnn(C)c4)c(=O)n3c2)c1 [RK-019, (R)-7-((3,5-dimethoxyphenyl) (2-((1-hydroxypropan-2-yl)amino)ethyl)amino)-3-(1-methyl-1H-pyrazol-4-yl)-4H-pyrido [1,2-a]pyrimidin-4-one]
[1]
  activity: 91%
[2]
  G0/G1 proportion: 67.88%
[3]
  migration and invasion ability: significantly suppress
[4]
  migration and invasion ability: significantly suppress
[5]
  activity at 1 µM: 108%
[6]
  activity at 1 µM: 100%
[7]
  activity at 1 µM: 92%
[8]
  activity at 1 µM: 101%
[9]
  activity at 1 µM: 90%
[10]
  activity at 1 µM: 92%
[11]
  activity at 1 µM: 94%
[12]
  activity at 1 µM: 90%
[13]
  activity at 1 µM: 83%
[14]
  activity at 1 µM: 100%
[15]
  activity at 1 µM: 106%
[16]
  activity at 1 µM: 93%
[17]
  activity at 1 µM: 120%
[18]
  activity at 1 µM: 110%
[19]
  activity at 1 µM: 113%
[20]
  activity at 1 µM: 97%
[21]
  activity at 1 µM: 27%
[22]
  activity at 1 µM: 105%
[23]
  activity at 1 µM: 98%
[24]
  activity at 1 µM: 107%
[25]
  activity at 1 µM: 107%
[26]
  activity at 1 µM: 19%
[27]
  activity at 1 µM: 98%
[28]
  activity at 1 µM: 64%
[29]
  activity at 1 µM: 126%

— paper PMC9532703, “A novel small molecule RK-019 inhibits FGFR2-amplification gastric cancer cell proliferation and induces apoptosis in vitro and in vivo” (Frontiers in Pharmacology, 2022)
